Laboratory results: patent US20250236609A1, “VPS34 INHIBITORS AND METHODS OF USE THEREOF” (Deciphera Pharmaceuticals, LLC, priority 2023, published 2025)

target: VPS34 (Homo sapiens (Human), UniProt Q8NEB9); test: Biochemical Assay for VPS34 (ADP-Glo kinase activity assay); settings: 25 nM VPS34, 1 mM ATP, 1-hour incubation at 37° C.; read-out: VPS34 (Inhibition of biochemical activity of VPS34, IC50)
Procedure: Activity of VPS34 kinase was determined using an ADP-Glo kinase activity assay (Promega Corp). Assays were conducted in 384-well plates (5 μL assay volume) using 25 nM VPS34 (ThermoFisher Scientific), […] PI:3PS Lipid Kinase Substrate (Promega Corp.), and 1 mM ATP in kinase buffer. Inhibition of VPS34 was measured by adding serial diluted test compound (final assay concentration of 0.1% DMSO) followed by a 1-hour incubation at 37° C. ADP-Glo reagent was then added ([…]) followed by a 40 min incubation at rt. Kinase detection reagent was then added ([…]) and followed by a 60 min incubation at rt. Luminescence was then detected. The RLU at each compound concentration of was converted to percent inhibition using controls (i.e., reaction with no test compound and reaction with a known inhibitor) and IC50 values were calculated by fitting a four-parameter sigmoidal curve to the data using GeneData Screener software.
VPS34 Protein Sequence (Full Length with GST Tag)

VPS34, sequence (Q8NEB9 other isoform, or with tags, fused parts or gaps): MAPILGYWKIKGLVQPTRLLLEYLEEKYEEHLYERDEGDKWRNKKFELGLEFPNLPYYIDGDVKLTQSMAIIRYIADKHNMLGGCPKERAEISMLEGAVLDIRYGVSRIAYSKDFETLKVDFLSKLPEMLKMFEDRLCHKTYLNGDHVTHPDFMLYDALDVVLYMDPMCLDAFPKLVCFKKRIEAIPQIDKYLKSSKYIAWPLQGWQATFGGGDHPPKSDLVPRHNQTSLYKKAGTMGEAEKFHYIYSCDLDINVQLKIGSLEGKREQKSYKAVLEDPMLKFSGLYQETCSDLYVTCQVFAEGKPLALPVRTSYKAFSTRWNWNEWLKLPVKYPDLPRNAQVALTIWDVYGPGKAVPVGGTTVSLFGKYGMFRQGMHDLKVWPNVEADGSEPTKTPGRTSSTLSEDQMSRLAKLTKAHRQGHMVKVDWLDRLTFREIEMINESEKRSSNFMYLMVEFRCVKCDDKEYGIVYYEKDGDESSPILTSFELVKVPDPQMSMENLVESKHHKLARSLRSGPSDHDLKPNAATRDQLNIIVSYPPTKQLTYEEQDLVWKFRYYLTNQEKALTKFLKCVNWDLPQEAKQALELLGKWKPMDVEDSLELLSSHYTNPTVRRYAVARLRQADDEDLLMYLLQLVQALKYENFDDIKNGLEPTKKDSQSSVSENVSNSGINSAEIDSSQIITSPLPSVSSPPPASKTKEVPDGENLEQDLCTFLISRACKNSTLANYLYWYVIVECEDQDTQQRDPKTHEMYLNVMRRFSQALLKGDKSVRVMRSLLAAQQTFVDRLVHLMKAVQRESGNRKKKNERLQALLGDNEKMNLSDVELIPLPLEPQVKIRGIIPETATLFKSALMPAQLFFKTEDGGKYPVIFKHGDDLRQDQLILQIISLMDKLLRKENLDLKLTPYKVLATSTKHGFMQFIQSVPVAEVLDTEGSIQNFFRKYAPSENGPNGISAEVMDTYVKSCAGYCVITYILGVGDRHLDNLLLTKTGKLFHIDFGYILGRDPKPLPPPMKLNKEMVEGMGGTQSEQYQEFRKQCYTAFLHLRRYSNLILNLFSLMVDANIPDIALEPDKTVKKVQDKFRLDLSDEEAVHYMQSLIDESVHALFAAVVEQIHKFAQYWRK

SMILES | IC50 [µM]
Cc1cnc(N)cc1-c1cc(N2CCCC[C@@H]2C(F)(F)F)[nH]c(=O)c1 [Example 23] | 1 to 10
COC(=O)Nc1cc(-c2cc(N3CCN(S(=O)(=O)CCN(C)C)C[C@@H]3C)[nH]c(=O)c2)c(C)cn1 [Example 34] | ≤ 0.1
COC[C@H]1CCCN1c1cc(-c2cc(NC(=O)OC)ncc2C)cc(=O)[nH]1 [Example 67] | 1 to 10
COCCS(=O)(=O)N1CCN(c2cc(-c3cc(NC(=O)C4CC4)ncc3C)cc(=O)[nH]2)[C@@H](C)C1 [Example 83] | 0.1 to 0.5
Cc1cnc(NC(=O)C2CC2)cc1-c1cc(-c2cnccc2C(F)(F)F)[nH]c(=O)c1 [Example 48] | 0.1 to 0.5
Cc1cnc(NC(=O)NC2CC2)cc1-c1cc(N2CCCC[C@@H]2C(F)(F)F)[nH]c(=O)c1 [Example 59] | 1 to 10
Cc1cnc(NC(=O)CC2CN(C)CC2(F)F)cc1-c1cc(N2CCCC[C@@H]2C(F)(F)F)[nH]c(=O)c1 (stereo partly shown) [Example 21] | 0.5 to 1
Cc1cnc(NC(=O)c2cnn(C)c2)cc1-c1cc(N2CCCC[C@@H]2C(F)(F)F)[nH]c(=O)c1 [Example 31] | 0.5 to 1
COC(=O)Nc1cc(-c2cc(-c3ccncc3C(F)(F)F)[nH]c(=O)c2)c(C)cn1 [Example 79] | 0.1 to 0.5
Cc1cnc(NC(=O)OC2CC2)cc1-c1cc(N2CCCC[C@@H]2C(F)(F)F)[nH]c(=O)c1 [Example 30] | 0.1 to 0.5
CNCCC(=O)Nc1cc(-c2cc(-c3cccnc3C(F)(F)F)[nH]c(=O)c2)c(C)cn1 [Example 73] | 1 to 10
COC(=O)Nc1cc(-c2cc(N3CCN(C(=O)CCN(C)C)C[C@@H]3C)[nH]c(=O)c2)c(C)cn1 [Example 63] | 1 to 10
COc1ccc(S(=O)(=O)N2CCN(c3cc(-c4cc(NC(=O)C5CC5)ncc4C)cc(=O)[nH]3)[C@@H](C)C2)cc1 [Example 87] | 0.1 to 0.5
COC(=O)Nc1cc(-c2cc(-c3cccnc3C(F)(F)F)[nH]c(=O)c2)c(C2CC2)cn1 [Example 11] | 1 to 10
Cc1cncc(Nc2cc(-c3cc(N4CCCC[C@@H]4C(F)(F)F)[nH]c(=O)c3)c(C)cn2)n1 [Example 2, (R)-5′-methyl-2′-((6-methylpyrazin-2-yl)amino)-6-(2-(trifluoromethyl)piperidin-1-yl)-[4,4′-bipyridin]-2(1H)-one] | ≤ 0.1
Cc1cnc(NC(=O)C2CC2)cc1-c1cc(N2CCN(C(=O)CC3CC3)C[C@@H]2C)[nH]c(=O)c1 [Example 93] | 1 to 10
Cc1cnc(NC(=O)c2cn[nH]c2)cc1-c1cc(N2CCCC[C@@H]2C(F)(F)F)[nH]c(=O)c1 [Example 47] | 0.5 to 1
Cc1cnc(NC2COC2)cc1-c1cc(N2CCCC[C@@H]2C(F)(F)F)[nH]c(=O)c1 [Example 56] | 1 to 10
CNCCC(=O)N1CCN(c2cc(-c3cc(NC(=O)OC)ncc3C)cc(=O)[nH]2)[C@@H](C(F)(F)F)C1 [Example 58] | 1 to 10
Cc1cnc(NC(=O)C2CC2)cc1-c1cc(N2CCN(S(=O)(=O)c3cc(F)ccc3F)C[C@@H]2C)[nH]c(=O)c1 [Example 86] | 0.1 to 0.5
CCS(=O)(=O)N1CCN(c2cc(-c3cc(NC(=O)C4CC4)ncc3C)cc(=O)[nH]2)[C@@H](C)C1 [Example 76] | 0.1 to 0.5
COC(=O)Nc1cc(-c2cc(-c3cccnc3C3CC3)[nH]c(=O)c2)c(C)cn1 [Example 70] | 1 to 10

SMILES | IC50 [µM]
Cc1cnnc(Nc2cc(-c3cc(N4CCCC[C@@H]4C(F)(F)F)[nH]c(=O)c3)c(C)cn2)c1 [Example 40] | 0.5 to 1
COC(=O)Nc1cc(-c2cc(N3CCN(S(=O)(=O)CCN(C)C)C[C@@H]3C(F)(F)F)[nH]c(=O)c2)c(C)cn1 [Example 32] | 0.1 to 0.5
COC(=O)Nc1cc(-c2cc(N3CCOC[C@H]3C(F)(F)F)[nH]c(=O)c2)c(C)cn1 [Example 36] | 1 to 10
Cc1cnc(NC(=O)C2COC2)cc1-c1cc(N2CCCC[C@@H]2C(F)(F)F)[nH]c(=O)c1 [Example 62] | 1 to 10
COCCC(=O)N1CCN(c2cc(-c3cc(NC(=O)C4CC4)ncc3C)cc(=O)[nH]2)[C@@H](C)C1 [Example 95] | 1 to 10
COc1ccc(C(=O)N2CCN(c3cc(-c4cc(NC(=O)C5CC5)ncc4C)cc(=O)[nH]3)[C@@H](C)C2)cc1 [Example 92] | 1 to 10
CNCCS(=O)(=O)Nc1ccc(-c2cc(-c3cc(NC(=O)C4CC4)ncc3C)cc(=O)[nH]2)c(C)c1 [Example 66] | 0.1 to 0.5
Cc1cnc(NC(=O)C2CC2)cc1-c1cc(N2CCN(C(=O)c3cnn(C)c3)C[C@@H]2C)[nH]c(=O)c1 [Example 89] | 0.5 to 1
Cc1nc(Nc2cc(-c3cc(N4CCCC[C@@H]4C(F)(F)F)[nH]c(=O)c3)c(C)cn2)no1 [Example 80] | 1 to 10
Cc1cnc(NC(=O)C2CC2)cc1-c1cc(N2CCN(S(=O)(=O)CC3CC3)C[C@@H]2C)[nH]c(=O)c1 [Example 85] | ≤ 0.1
Cc1cnc(NC(=O)c2cnn(C3CNC3)c2)cc1-c1cc(N2CCCC[C@@H]2C(F)(F)F)[nH]c(=O)c1 [Example 74] | 1 to 10
Cc1cnc(Nc2cnn(C)c2)cc1-c1cc(-c2cccnc2C(F)(F)F)[nH]c(=O)c1 [Example 33] | 0.5 to 1
Cc1cnc(Nc2cnn(C)n2)cc1-c1cc(N2CCCC[C@@H]2C(F)(F)F)[nH]c(=O)c1 [Example 41] | 0.1 to 0.5
Cc1cnc(Nc2cnn(C)c2)cc1-c1cc(N2CCCC[C@@H]2C(F)(F)F)[nH]c(=O)c1 [Example 29] | 0.5 to 1
Cc1cnc(NC(=O)c2cnn(C)c2)cc1-c1cc(-c2cccnc2C(F)(F)F)[nH]c(=O)c1 [Example 68] | 1 to 10
Cc1ccc(Nc2cc(-c3cc(N4CCCC[C@@H]4C(F)(F)F)[nH]c(=O)c3)c(C)cn2)nn1 [Example 44] | ≤ 0.1
Cc1cnc(NC(=O)CN(C)C)cc1-c1cc(N2CCCC[C@@H]2C(F)(F)F)[nH]c(=O)c1 [Example 19] | 1 to 10
CNC(=O)Nc1cc(-c2cc(-c3cccnc3C(F)(F)F)[nH]c(=O)c2)c(C)cn1 [Example 52] | 1 to 10
CNc1cc(-c2cc(N3CCCC[C@@H]3C(F)(F)F)[nH]c(=O)c2)c(C)cn1 [Example 53] | 1 to 10
Cc1cnc(NC(=O)C2CC2)cc1-c1cc(NS(=O)(=O)c2ccc(F)cc2F)[nH]c(=O)c1 [compound 97] | 0.1 to 0.5
COC(=O)Nc1ncc(C)c(-c2cc(N3CCCC[C@@H]3C(F)(F)F)[nH]c(=O)c2)n1 [Example 8] | 0.1 to 0.5
Cc1cnc(Nc2cnn(CCN(C)C)c2)cc1-c1cc(N2CCCC[C@@H]2C(F)(F)F)[nH]c(=O)c1 [Example 69] | 1 to 10

SMILES | IC50 [µM]
COC(=O)Nc1cc(-c2cc(-c3cccnc3C(F)(F)F)[nH]c(=O)c2)c(Cl)cn1 [Example 51] | 1 to 10
Cc1cnc(N)cc1-c1cc(-c2cccnc2C(F)(F)F)[nH]c(=O)c1 [Example 55] | 1 to 10
Cc1nccc(Nc2cc(-c3cc(NS(=O)(=O)c4ccc(F)cc4F)[nH]c(=O)c3)c(C)cn2)n1 [Example 96, 2,4-difluoro-N-(5′-methyl-2′-((2-methylpyrimidin-4-yl)amino)-6-oxo-1,6-dihydro-[4,4′-bipyridin]-2-yl)benzenesulfonamide] | 0.1 to 0.5
Cc1cnc(Nc2nnn(C)n2)cc1-c1cc(N2CCCC[C@@H]2C(F)(F)F)[nH]c(=O)c1 [Example 43] | 0.1 to 0.5
Cc1cnc(NC(=O)C2CC2)cc1-c1cc(N2CCN(C(=O)c3cccnc3)C[C@@H]2C)[nH]c(=O)c1 [Example 94] | 1 to 10
Cc1cnc(Nc2ncn(C)n2)cc1-c1cc(N2CCCC[C@@H]2C(F)(F)F)[nH]c(=O)c1 [Example 42] | ≤ 0.1
Cc1cnc(NC(=O)CC2CN(C)C2)cc1-c1cc(N2CCCC[C@@H]2C(F)(F)F)[nH]c(=O)c1 [Example 3, (R)-N-(5-methyl-2′-oxo-6′-(2-(trifluoromethyl)piperidin-1-yl)-1′,2′-dihydro-[4,4′-bipyridin]-2-yl)-2-(1-methylazetidin-3-yl)acetamide] | 0.1 to 0.5
COC(=O)Nc1cc(-c2cc(N3CCN(C(=O)CCN(C)C)C[C@@H]3C(F)(F)F)[nH]c(=O)c2)c(C)cn1 [Example 61] | 1 to 10
CNCCC(=O)Nc1cc(-c2cc(N3CCCC[C@@H]3C(F)(F)F)[nH]c(=O)c2)c(C)cn1 [Example 35] | 0.5 to 1
Cc1cnc(Nc2ccn(C)n2)cc1-c1cc(N2CCCC[C@@H]2C(F)(F)F)[nH]c(=O)c1 [Example 71] | 1 to 10
Cc1cnc(NC(=O)C2CC2)cc1-c1cc(N2CCN(S(=O)(=O)c3cnn(C)c3)C[C@@H]2C)[nH]c(=O)c1 [Example 84] | ≤ 0.1
Cc1cnc(NC(=O)C2CC2)cc1-c1cc(N2CCN(S(=O)(=O)C3CC3)C[C@@H]2C)[nH]c(=O)c1 [Example 82] | ≤ 0.1
Cc1cnc(NC(=O)[C@H]2CCN(C)C2)cc1-c1cc(N2CCCC[C@@H]2C(F)(F)F)[nH]c(=O)c1 [Example 57] | 1 to 10
Cc1cnc(NC(=O)[C@@H]2CCN(C)C2)cc1-c1cc(N2CCCC[C@@H]2C(F)(F)F)[nH]c(=O)c1 [Example 65] | 1 to 10
Cc1cnc(NC(=O)C2CC2)cc1-c1cc(N2CCN(C(=O)c3ccc(F)cc3)C[C@@H]2C)[nH]c(=O)c1 [Example 88] | 1 to 10
CC(=O)Nc1cc(-c2cc(-c3cccnc3C(F)(F)F)[nH]c(=O)c2)c(C)cn1 [Example 9] | 0.1 to 0.5
COC(=O)Nc1cc(-c2cc(-c3cccnc3C(F)(F)F)[nH]c(=O)c2)c(CF)cn1 [Example 50] | 1 to 10
CNCC(=O)Nc1cc(-c2cc(-c3cccnc3C(F)(F)F)[nH]c(=O)c2)c(C)cn1 [Example 64] | 1 to 10
Cc1cnc(Nc2cn(C)nn2)cc1-c1cc(N2CCCC[C@@H]2C(F)(F)F)[nH]c(=O)c1 [Example 39] | 0.5 to 1
Cc1cnccc1-c1cc(N2CCCC[C@@H]2C(F)(F)F)[nH]c(=O)c1 [Example 13] | 1 to 10
